The assay deals with CD2F1 mice, L1210 leukemia ip, survival T/C. The experiment in a line: NCI In Vivo Anticancer Drug Screen. Data for tumor model L1210 Leukemia (intraperitoneal) in CD2F1 (CDF1) mice. Conditions: higher = longer survival. The method, boiled down: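 In this screen, transplantable tumors were grown in mice given either the compound or its vehicle. Results were expressed as the treated measurement relative to the control measurement.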

Setting [1] is: endpoint: mean survival time, dose: 5.0 mg/kg/injection, schedule: Q01DX009 (ip), vehicle: saline.
Where [2] appears, read: endpoint: mean survival time, dose: 5.0 mg/kg/injection, schedule: Q04DX003 (ip), vehicle: saline.
Setting [3] is: endpoint: mean survival time, dose: 10.0 mg/kg/injection, schedule: Q01DX009 (ip), vehicle: saline.
[4] abbreviates: endpoint: mean survival time, dose: 10.0 mg/kg/injection, schedule: Q04DX003 (ip), vehicle: saline.
The mark [5] stands for this setting: endpoint: mean survival time, dose: 20.0 mg/kg/injection, schedule: Q04DX003 (ip), vehicle: saline.
[6] abbreviates: endpoint: mean survival time, dose: 100.0 mg/kg/injection, schedule: Q04DX003 (ip), vehicle: saline with Tween-80.
Where [7] appears, read: endpoint: mean survival time, dose: 200.0 mg/kg/injection, schedule: Q04DX003 (ip), vehicle: saline with Tween-80.
The mark [8] stands for this setting: endpoint: mean survival time, dose: 12.5 mg/kg/injection, schedule: Q04DX003 (ip), vehicle: saline.
Setting [9] is: endpoint: mean survival time, dose: 25.0 mg/kg/injection, schedule: Q04DX003 (ip), vehicle: saline.
[10] abbreviates: endpoint: mean survival time, dose: 50.0 mg/kg/injection, schedule: Q04DX003 (ip), vehicle: saline.
[11] abbreviates: endpoint: mean survival time, dose: 400.0 mg/kg/injection, schedule: Q04DX003 (ip), vehicle: saline with Tween-80.

The structures appear in SMILES notation. Several values for one entry are separate records, joined by “and”; a condition that tells them apart may be missing. Identical values can stand only once. Toxic doses and inconclusive results are not listed.

Regarding `CN1CCN(C(=O)NCCCl)CC1`, the T/C is 107 % of control under setting [1]; 93 % of control under setting [2]; 94 % of control under setting [3]; 92 % of control under setting [4]; 92 % of control under setting [5].

Regarding `COc1ccccc1NC(=O)Nc1cccc([N+](=O)[O-])c1OC`, the T/C (endpoint: mean survival time, dose: 100.0 mg/kg/injection, schedule: Q04DX002 (ip), vehicle: saline with Tween-80) is 97 % of control; the T/C (endpoint: mean survival time, dose: 200.0 mg/kg/injection, schedule: Q04DX002 (ip), vehicle: saline with Tween-80) is 87 % of control; the T/C (endpoint: mean survival time, dose: 400.0 mg/kg/injection, schedule: Q04DX002 (ip), vehicle: saline with Tween-80) was 94 % of control.

Take `NC(CNC(=O)CBr)C(=O)O` (configuration not stated): the T/C by setting is: (endpoint: median survival time, dose: 3.0 mg/kg/injection, schedule: Q01DX009 (ip), vehicle: water) 111 % of control; (endpoint: median survival time, dose: 6.0 mg/kg/injection, schedule: Q01DX009 (ip), vehicle: water) 122 % of control and 124 % of control; (endpoint: median survival time, dose: 12.5 mg/kg/injection, schedule: Q01DX009 (ip), vehicle: water) 122 % of control; (endpoint: median survival time, dose: 24.0 mg/kg/injection, schedule: Q01DX009 (ip), vehicle: water) 156 % of control; (endpoint: median survival time, dose: 25.0 mg/kg/injection, schedule: Q01DX009 (ip), vehicle: water) 120 % of control; (endpoint: median survival time, dose: 48.0 mg/kg/injection, schedule: Q01DX009 (ip), vehicle: water) 156 % of control.

Take `O=C(O)CCCCCSc1nn(C2OC(CO)C(O)C2O)c(=O)[nH]c1=O` (configuration not stated): the T/C (endpoint: mean survival time, dose: 12.5 mg/kg/injection, schedule: Q01DX005 (ip), vehicle: distilled water + Tween-80) is 112 % of control; the T/C (endpoint: mean survival time, dose: 25.0 mg/kg/injection, schedule: Q01DX005 (ip), vehicle: distilled water + Tween-80) is 104 % of control; the T/C (endpoint: mean survival time, dose: 50.0 mg/kg/injection, schedule: Q01DX005 (ip), vehicle: distilled water + Tween-80) was 104 % of control; the T/C (endpoint: mean survival time, dose: 100.0 mg/kg/injection, schedule: Q01DX005 (ip), vehicle: distilled water + Tween-80) was 104 % of control; the T/C (endpoint: mean survival time, dose: 200.0 mg/kg/injection, schedule: Q01DX005 (ip), vehicle: distilled water + Tween-80) is 104 % of control.

For `Cc1cc2ccccc2[n+](C)c1-c1ccccc1Cl` (tested in a mixture with another compound), the T/C was 104 % of control under setting [1]; 101 % of control under setting [2]; 100 % of control under setting [3]; 101 % of control under setting [4]; 105 % of control under setting [5].

As for `COc1ccc(OC)c(C2N(Cc3ccc(N(C)C)cc3)CCCN2Cc2ccc(N(C)C)cc2)c1`, the T/C under setting [6] was 90 % of control and the T/C under setting [7] was 87 % of control.

`NS(=O)(=O)O`: the T/C by setting is: under setting [8], 98 % of control; under setting [9], 110 % of control; under setting [10], 102 % of control.

As for `O=P(OCCCl)(OCCCl)C(Cl)Cl`, the T/C was 96 % of control (endpoint: mean survival time, dose: 100.0 mg/kg/injection, schedule: Q01DX001 (ip), vehicle: saline); 100 % of control (endpoint: mean survival time, dose: 200.0 mg/kg/injection, schedule: Q01DX001 (ip), vehicle: saline); 97 % of control (endpoint: mean survival time, dose: 400.0 mg/kg/injection, schedule: Q01DX001 (ip), vehicle: saline).

`C#CC1(OC(=O)c2ccccc2)CCCCC1`: the T/C under setting [6] is 98 % of control, the T/C under setting [7] was 96 % of control and the T/C under setting [11] was 102 % of control.

For `O/N=C\C[n+]1cc2ccccc2cc1/C=N\O`, the T/C under setting [8] is 93 % of control, the T/C under setting [9] was 101 % of control and the T/C under setting [10] is 90 % of control.

Turning to `OC(c1ccccc1)c1nc2ccccc2[nH]1` (configuration not stated), the T/C runs as follows: (endpoint: mean survival time, dose: 100.0 mg/kg/injection, schedule: Q01DX009 (ip), vehicle: saline with Tween-80) 98 % of control; under setting [6], 101 % of control; (endpoint: mean survival time, dose: 200.0 mg/kg/injection, schedule: Q01DX009 (ip), vehicle: saline with Tween-80) 95 % of control; under setting [7], 96 % of control; (endpoint: mean survival time, dose: 400.0 mg/kg/injection, schedule: Q01DX009 (ip), vehicle: saline with Tween-80) 96 % of control; under setting [11], 100 % of control.

For the compound `Cn1c(=O)[nH]c2c(nc(-c3ccc(Cl)cc3)n2CCc2ccccc2)c1=O`, the T/C was 100 % of control (endpoint: mean survival time, dose: 7.8 mg/kg/injection, schedule: Q01DX005 (ip), vehicle: other); 95 % of control (endpoint: mean survival time, dose: 15.6 mg/kg/injection, schedule: Q01DX005 (ip), vehicle: other); 95 % of control (endpoint: mean survival time, dose: 31.3 mg/kg/injection, schedule: Q01DX005 (ip), vehicle: other); 95 % of control (endpoint: mean survival time, dose: 62.5 mg/kg/injection, schedule: Q01DX005 (ip), vehicle: other); 95 % of control (endpoint: mean survival time, dose: 125.0 mg/kg/injection, schedule: Q01DX005 (ip), vehicle: other).

Turning to `CC(C)C(=O)/C=C/c1ccccc1`, the T/C under setting [6] was 102 % of control, the T/C under setting [7] is 103 % of control and the T/C under setting [11] is 102 % of control.

For the origin of these results see PubChem BioAssay AID256 (DTP/NCI, 2004).
